Measured values published in PubChem BioAssay AID1996.
Converted amounts (≈) assume the structure as drawn.

Settings: buffer; pH 7.4; 200.0 µM

| SMILES | solubility kinetic [µg/mL] |
| --- | --- |
| CCN(CC(=O)NCc1ccco1)S(=O)(=O)c1ccc(F)cc1 | > 51.1 |
| Cc1ccc(S(=O)(=O)N2CCC(C(N)=O)CC2)cc1[N+](=O)[O-] | > 49.1 |
| Cc1cc(C)c2c(N)c(C(=O)Nc3cccc(C)c3C)sc2n1 | 1.2 (≈ 3.69 µM) |
| COc1ccc(NC(=O)N2CCOCC2)cc1 | > 35.4 |
| O=C(c1ccccc1)c1ccccc1N1C(=O)C=CC1=O | > 41.6 |
| COC(=O)c1sccc1NC(=O)C1CC1 | 21.8 (≈ 96.8 µM) |
| COc1ccccc1-n1cnnc1SCC(=O)N1CCOCC1 | > 50.2 |
| O=C(COC(=O)/C=C/c1ccccc1)NC(=O)NC1CCCCC1 | 8.8 (≈ 26.6 µM) |
| O=C(CN1CCCC1)NN=C(c1ccccc1)c1ccccc1 | > 46.1 |
| O=C(COC(=O)c1ccc2ccccc2n1)NC1CCCCC1 | 8.5 (≈ 27.2 µM) |
| COc1cc(OC)cc(C(=O)NC2CCCCCCC2)c1 | 8.6 (≈ 29.5 µM) |
| CN1CCN(CCc2nc3cc(NC(=O)c4ccco4)ccc3n2C)CC1 | > 55.1 |
| CN1CCN(C(=O)C2CC(=O)N(c3ccc(Cl)cc3)C2)CC1 (stereo unspecified) | 42.7 (≈ 133 µM) |
| CCN(CC)CCCNc1ncnc2ccccc12.Cl | 42.3 |
| CC(c1ccccc1)c1nnc(N)s1 (stereo unspecified) | > 30.8 |
| COc1ccc(NC2CC(=O)N(c3cc([N+](=O)[O-])ccc3C)C2=O)cc1 (stereo unspecified) | > 53.3 |
| CCC(=O)Nc1cc(C(=O)O)ccc1Sc1ccc(C)cc1 | 38.8 (≈ 123 µM) |
| COP(=O)(Cc1ccc(C#N)o1)OC | > 32.3 |
| COCCN1CC(C(=O)NCc2ncccc2C)CCC1=O (stereo unspecified) | > 45.8 |
| O=C(Nc1cccnc1)c1cc([N+](=O)[O-])ccc1Cl | > 41.7 |
| CC1CC(C)CN(C(=O)C(Cc2ccccc2)n2cccc2)C1 (stereo unspecified) | 4.4 (≈ 14.2 µM) |
| CCOC(=O)Cc1csc(NC(=O)COC(=O)/C=C/c2ccc(OC)cc2)n1 | 4.5 (≈ 11.1 µM) |
| Cn1c(C(=O)c2ccccc2)nc2ccccc21 | 24 (≈ 102 µM) |
| CCOC(=O)C(C)Oc1ccc(NC(=O)C(Cl)(Cl)Cl)cc1 (stereo unspecified) | 51.1 (≈ 144 µM) |
| N#CCN1C(=O)C(=O)N(Cc2cccc(Cl)c2)C1=O | > 41.7 |

| SMILES | solubility kinetic [µg/mL] |
| --- | --- |
| N#C/C(=C\c1ccccc1)c1ccccn1 | 8.6 (≈ 41.7 µM) |
| Cc1ccc(SCc2cn3cc(Cl)ccc3n2)cc1 | 2.9 (≈ 10 µM) |
| O=C(Nc1cccc2ccccc12)OCc1cncs1 | > 42.6 |
| Brc1ccc(COn2ccnc2)cc1 | > 38 |
| Cc1cccc(C)c1NC(=S)N1CCCN(C)CC1 | > 41.6 |
| COCC(=O)Nc1ccc2nc3n(c(=O)c2c1)CCCCC3 | 41.7 (≈ 138 µM) |
| COc1c(C)cc(C(=O)C2CCCN(C3CCOCC3)C2)cc1C (stereo unspecified) | > 49.7 |
| O=C(COC(=O)c1ccc(Cl)nc1)NCCC1=CCCCC1 | 36.6 (≈ 113 µM) |
| Cc1cccc(CCNC(=O)c2oc3c(C)c(C)ccc3c2C)n1 | 1.9 (≈ 5.89 µM) |
| COc1ccc(-n2c(C)nc(N)c2C(=O)c2ccccc2)cc1 | 19.8 (≈ 64.4 µM) |
| CCOC(=O)C1=C(C)NC(=O)NC1c1cccs1 (stereo unspecified) | > 39.9 |
| Cc1cc(=O)oc2cc(NS(=O)(=O)c3ccccc3)ccc12 | 10.5 (≈ 33.3 µM) |
| Cc1cccc(NC(=O)Cn2cc(C=O)c3ccccc32)c1 | 0.9 (≈ 3.08 µM) |
| CC(=O)c1c(COC(=O)c2ccc(Cl)cc2)nc2ccccc2[n+]1[O-] | 0.6 (≈ 1.68 µM) |
| Cc1cccc(OCC(=O)NCCCNC(=O)c2cccnc2)c1 | > 49.1 |
| COCCCNC(=O)C(C)N1c2cccc3cccc(c23)S1(=O)=O (stereo unspecified) | 50.2 (≈ 144 µM) |
| Clc1ccc(-c2noc(/C=C/c3ccccc3)n2)cc1 | < 0.3 |
| Cc1nc(NC(=S)NC(=O)c2ccccc2)sc1C | 0.3 (≈ 1.03 µM) |
| O=C1CN=C(c2ccc(Cl)cc2)c2oc3ccccc3c2N1 | < 0.3 |
| O=C(COC(=O)c1cccnc1)NC1CCCc2ccccc21 (stereo unspecified) | 39.3 (≈ 127 µM) |
| Cc1cccc(CC(=O)N2CCCC2)c1 | 28.7 (≈ 141 µM) |
| CCOC(=O)c1sc(N)c(C(=O)OCC)c1C | 4.4 (≈ 17.1 µM) |
| O=C(COC(=O)c1ccccc1Br)Nc1ccc(F)cc1 | 28.7 (≈ 81.5 µM) |
| O=CN1CCN(c2c([N+](=O)[O-])c(=O)oc3ccccc23)CC1 | > 45.5 |
| CCCCC(=O)Nc1cccc(NC(=O)c2cccnc2Cl)c1 | > 49.8 |

| SMILES | solubility kinetic [µg/mL] |
| --- | --- |
| Cc1ccc(S(=O)(=O)Nc2cccc(S(=O)(=O)Nc3ccccc3C(=O)O)c2)c(C)c1 | > 69.1 |
| CC(=O)C1C(c2ccc(C)cc2)c2c(noc2C)CC1(C)O (stereo unspecified) | 42.2 (≈ 141 µM) |
| Cc1ccc(NC(=O)CCN2C(=O)c3ccccc3C2=O)cc1 | 8.9 (≈ 28.9 µM) |
| O=C(CNc1cccc([N+](=O)[O-])c1)NCCCc1ccccc1 | 8 (≈ 25.5 µM) |
| Cc1cccc(OCCOC(=O)c2c(-c3ccccc3)noc2C)c1 | 1.1 (≈ 3.26 µM) |
| CCCc1cc(=O)[nH]c(SCC(=O)Nc2sc3c(c2C(N)=O)CCCC3)n1 | 9 (≈ 22.1 µM) |
| COc1ccc(S(=O)(=O)NCCc2c[nH]c3ccc(C)cc23)cc1 | 17.3 (≈ 50.2 µM) |
| Cc1ccc(/C=C/C(=O)NC2CCS(=O)(=O)C2)cc1 (stereo unspecified) | 40.2 (≈ 144 µM) |
| CCCC(=O)Nc1nnc(SCC(=O)NC2CC2)s1 | > 45.1 |
| CCCCCCNC(=O)Cc1ccc(Br)cc1 | 5 (≈ 16.8 µM) |
| CCc1nc(N2CCN(C(C)=O)CC2)c(C#N)c2c1COC(C)(C)C2 | > 51.4 |
| CCCCCn1c(=O)c(C(=O)OCC)c(Cl)c2ccccc21 | 6.5 (≈ 20.2 µM) |
| COc1ccc(S(=O)(=O)NCCOc2ccccc2)cc1F | 2.4 (≈ 7.38 µM) |
| Nc1c(C(=O)c2ccco2)oc2ccccc12 | 25.8 (≈ 114 µM) |
| Cc1cc(=O)[nH]c(SCC(=O)N2C(C)CCCC2C)n1 (stereo unspecified) | 38.3 (≈ 130 µM) |
| O=C(O)c1ccc(Cl)c(NCc2cccs2)c1 | 34.8 (≈ 130 µM) |
| CCN(CC)C(=O)C(C)N(C#N)c1nc(Cl)nc(N(C)C)n1 (stereo unspecified) | > 48.9 |
| Cc1cc(SCc2ccc(Br)cc2)nc(=O)[nH]1 | 6 (≈ 19.3 µM) |
| COc1ccc(CCNC(=O)C(C)OC(=O)c2cccs2)cc1OC (stereo unspecified) | 49 (≈ 135 µM) |
| CCOc1ncccc1C(=O)Nc1ccc(C)cn1 | 31.8 (≈ 124 µM) |
| O=S(=O)(NC(=S)NC1CCCCC1)c1ccccc1 | 44 (≈ 147 µM) |
| CCOC(=O)NC(=S)Nc1c(C)n(C)n(-c2ccccc2)c1=O | > 50.2 |
| Cc1cccc(C(=O)NCC(=O)N2CCN(c3ccccn3)CC2)c1 | > 50.8 |
| O=c1c2ccccc2[nH]c2ccc(O)cc12 | > 31.7 |
| O=C(O)CC(CC(=O)Nc1ccc(C(=O)O)cc1)c1ccccc1 (stereo unspecified) | > 49.1 |

| SMILES | solubility kinetic [µg/mL] |
| --- | --- |
| Cc1nn(CC(=O)OCC(=O)Nc2cccc(S(N)(=O)=O)c2)c(C)c1[N+](=O)[O-] | > 61.7 |
| COc1ccc(CCC(=O)N2CCCc3ccccc32)cc1 | 39.1 (≈ 132 µM) |
| c1ccc(SCc2cn3cccnc3n2)nc1 | > 36.3 |
| Cc1cc(C)cc(NS(=O)(=O)c2ccc(NC(=O)c3ccccc3C(=O)O)cc2)c1 | 54.2 (≈ 128 µM) |
| COc1cc(/C=C/C(=O)OCC(=O)Nc2cc(S(=O)(=O)N3CCOCC3)ccc2Cl)cc(OC)c1OC | 5.3 (≈ 9.55 µM) |
| O=C(CSc1nccn1-c1cccc(Cl)c1)NO | > 42.6 |
| COc1ccc(CNC(=O)N2CCc3ccccc3C2)cc1 | > 44.5 |
| C/C(=C\c1ccccc1)CN1CCN(C)CC1 | 18.1 (≈ 78.6 µM) |
| Cc1ccc(NC(CC(=O)c2ccccc2)C(=O)O)cc1Cl (stereo unspecified) | 10.2 (≈ 32.1 µM) |
| CCOC(=O)c1cc(C(C)(C)C)n(CCCN2CCOCC2)c1C | 47.5 (≈ 141 µM) |
| Cc1ccc(CCC(=O)Nc2ccc(Cl)cc2)o1 | 23.9 (≈ 90.6 µM) |
| Cc1cc(C)cc(OCC(=O)Nc2cc(C)on2)c1 | 1.5 (≈ 5.76 µM) |
| COc1ccc(S(=O)(=O)N(C)C(C)CCc2ccco2)cc1 (stereo unspecified) | 35 (≈ 108 µM) |
| O=C1CC(N(O)c2ccccc2)C(=O)N1c1ccc(Cl)c(Cl)c1 (stereo unspecified) | 9.8 (≈ 27.9 µM) |
| Cl.O=C(CCN1CCOCC1)NCc1ccccc1 | > 42.7 |
| O=C(NCc1cccc(F)c1)C1CCC(=O)N(C2CC2)C1 (stereo unspecified) | > 43.6 |
| COc1cc(OC)cc(C(=O)NCC(=O)OCC(=O)NC(C)CCc2ccccc2)c1 (stereo unspecified) | > 64.3 |
| COc1ccc(C(=O)NCCc2ccccc2)cc1[N+](=O)[O-] | > 45 |
| CN1C(=O)/C(=C\c2cccc(OCc3ccccc3)c2)SC1=S | < 0.7 |
| COC(=O)c1cc2ccccc2n1Cc1ccc(Cl)nc1 | 1.5 (≈ 4.99 µM) |
| COc1ccc(CCNc2c([N+](=O)[O-])ncn2C)cc1OC | 45.8 (≈ 150 µM) |
| CCCC(=O)Nc1sc(Cc2ccccc2)c(C)c1C(N)=O | 6.9 (≈ 21.8 µM) |
| O=S(=O)(NCc1cccs1)c1ccccc1Cl | > 43.2 |
| O=c1[nH]cccc1-c1nc2ccccc2n1Cc1cccc(F)c1 | 2.4 (≈ 7.52 µM) |
| CC(OC(=O)CNC(=O)C1CCCCC1)C(=O)NCc1ccccc1 (stereo unspecified) | > 52 |

| SMILES | solubility kinetic [µg/mL] |
| --- | --- |
| S=C(Nc1cccnc1)NC1CC2CCC1C2 (stereo unspecified) | > 37.1 |
| CC(C)CN(C(=O)C1CCCC1)C1CCS(=O)(=O)C1 (stereo unspecified) | > 43.1 |
| O=C(CC1CCC1)Nc1cccc2c([N+](=O)[O-])cccc12 | 5.8 (≈ 20.4 µM) |
| CCC(NC(=S)NCc1ccc(F)cc1)c1ccc(C)cc1 (stereo unspecified) | 0.8 (≈ 2.53 µM) |
| O=C(c1cccc(F)c1)N1CCCc2ccccc21 | 28.1 (≈ 110 µM) |
| COc1ccccc1CC(=O)N1CCN(c2cccc(Cl)c2)CC1 | 22 (≈ 63.8 µM) |
| CN(C(=O)Cn1cc([N+](=O)[O-])ccc1=O)C1CCCCC1 | 41.7 (≈ 142 µM) |
| CCN(CC)c1nc2ccccc2[nH]c1=O | 10.7 (≈ 49.2 µM) |
| CC(C)c1ccc(OCc2ccc(C(=O)N3CCCC3)o2)cc1 | 26.7 (≈ 85.2 µM) |
| CCOc1ccccc1NC(=O)C1CCCN(S(C)(=O)=O)C1 (stereo unspecified) | > 49 |
| C=CCNC(=S)NC(CC(=O)OC)c1ccc2c(c1)OCO2 (stereo unspecified) | 30.3 (≈ 94 µM) |
| N/C(=N\OC(=O)Nc1cccc(C(F)(F)F)c1)c1ccno1 | 18.7 (≈ 59.5 µM) |
| O=C(Cc1ccc(O)cc1)N/N=C/c1cccnc1 | > 38.3 |
| Cc1ccccc1C(=O)N1c2ccccc2OCC1C(C)(C)C (stereo unspecified) | < 0.7 |
| NC(=O)COC(=O)c1sc2cc(F)ccc2c1Cl | 6.3 (≈ 21.9 µM) |
| CSCCC(NC(=O)C1CCCCC1)c1nc2ccccc2[nH]1 (stereo unspecified) | 23 (≈ 69.4 µM) |
| CCC(C)NC(=O)[C@@H]1CSC2c3ccccc3C(=O)N21 (stereo partly specified) | > 43.6 |
| CC(C)C(NC(=O)c1ccc(F)cc1)C(=O)N1CCN(c2ccccn2)CC1 (stereo unspecified) | 25.8 (≈ 67.1 µM) |
| O=C(c1cccnc1)N1CCCC(Nc2ccc(F)cc2)C1 (stereo unspecified) | 41.6 (≈ 139 µM) |
| COc1ccc(C(=O)Nc2ccc3[nH]ccc3c2)cc1 | > 39.9 |
| CC(=O)CCSc1ncnc2sc(-c3ccccc3)cc12 | 0.6 (≈ 1.91 µM) |
